According to PMC7523345 (Investigational new drugs, 2018):
Entries after “also recorded” stand apart in the source; their conditions may differ.

Assay: Phase I dose escalation study: safety, tolerability, DLT and MTD
Assay type: in vivo

Cc1cccc2c1NC(=O)[C@@H](NC(=O)[C@H](CCC(F)(F)F)[C@H](CCC(F)(F)F)C(N)=O)N=C2c1cccc(F)c1 [BMS-986115]
Leucocytosis (drug related AE, Grade 3 and 4) (Arm A QD 2.0 mg (N = 7)): 0 n (%)
Mouth ulceration (drug related AE, all grades) (Arm A QD 2.0 mg (N = 7)): 1 (14) n (%)
Nausea (drug related AE, Grade 3 and 4) (Arm A QD 2.0 mg (N = 7)): 1 (14) n (%)
Nausea (drug related AE, all grades) (Arm A QD 2.0 mg (N = 7)): 5 (71) n (%)
Pruritus (drug related AE, Grade 3 and 4) (Arm A QD 2.0 mg (N = 7)): 1 (14) n (%)
Pruritus (drug related AE, all grades) (Arm A QD 2.0 mg (N = 7)): 3 (43) n (%)
Pulmonary embolism (drug related AE, Grade 3 and 4) (Arm A QD 2.0 mg (N = 7)): 0 n (%)
Rash (drug related AE, all grades) (Arm A QD 2.0 mg (N = 7)): 1 (14) n (%)
Rash maculopapular (drug related AE, all grades) (Arm A QD 2.0 mg (N = 7)): 2 (29) n (%)
Sinusitis (drug related AE, all grades) (Arm A QD 2.0 mg (N = 7)): 0 n (%)
Urticaria (drug related AE, Grade 3 and 4) (Arm A QD 2.0 mg (N = 7)): 1 (14) n (%)
Vision blurred (drug related AE, all grades) (Arm A QD 2.0 mg (N = 7)): 0 n (%)
Vomiting (drug related AE, Grade 3 and 4) (Arm A QD 2.0 mg (N = 7)): 1 (14) n (%)
Vomiting (drug related AE, all grades) (Arm A QD 2.0 mg (N = 7)): 5 (71) n (%)
Weight decreased (drug related AE, all grades) (Arm A QD 2.0 mg (N = 7)): 0 n (%)
No. of patients with DLTs (Arm A QD 2.0 mg, 5 DLT evaluable patients): 3
Abdominal distension (drug related AE, all grades) (Arm A QD Total (N = 24)): 1 (4) n (%)
Abdominal pain (drug related AE, Grade 3 and 4) (Arm A QD Total (N = 24)): 1 (4) n (%)
Abdominal pain (drug related AE, all grades) (Arm A QD Total (N = 24)): 2 (8) n (%)
Blood creatinine increased (drug related AE, all grades) (Arm A QD Total (N = 24)): 1 (4) n (%)
Colitis (drug related AE, Grade 3 and 4) (Arm A QD Total (N = 24)): 1 (4) n (%)
Cough (drug related AE, Grade 3 and 4) (Arm A QD Total (N = 24)): 1 (4) n (%)
Cough (drug related AE, all grades) (Arm A QD Total (N = 24)): 3 (13) n (%)
Decreased Appetite (drug related AE, Grade 3 and 4) (Arm A QD Total (N = 24)): 0 n (%)
Decreased Appetite (drug related AE, all grades) (Arm A QD Total (N = 24)): 8 (33) n (%)
Dehydration (drug related AE, Grade 3 and 4) (Arm A QD Total (N = 24)): 0 n (%)
Dehydration (drug related AE, all grades) (Arm A QD Total (N = 24)): 3 (13) n (%)
Dermatitis acneiform (drug related AE, all grades) (Arm A QD Total (N = 24)): 4 (17) n (%)
Diarrhoea (drug related AE, Grade 3 and 4) (Arm A QD Total (N = 24)): 4 (17) n (%)
Diarrhoea (drug related AE, all grades) (Arm A QD Total (N = 24)): 18 (75) n (%)
Dry mouth (drug related AE, all grades) (Arm A QD Total (N = 24)): 2 (8) n (%)
Dry skin (drug related AE, all grades) (Arm A QD Total (N = 24)): 3 (13) n (%)
Dysgeusia (drug related AE, all grades) (Arm A QD Total (N = 24)): 3 (13) n (%)
Dyspepsia (drug related AE, all grades) (Arm A QD Total (N = 24)): 2 (8) n (%)
Dysphonia (drug related AE, all grades) (Arm A QD Total (N = 24)): 4 (17) n (%)
Fatigue (drug related AE, Grade 3 and 4) (Arm A QD Total (N = 24)): 1 (4) n (%)
Fatigue (drug related AE, all grades) (Arm A QD Total (N = 24)): 10 (42) n (%)
Flatulence (drug related AE, all grades) (Arm A QD Total (N = 24)): 0 n (%)
Hypocalcaemia (drug related AE, Grade 3 and 4) (Arm A QD Total (N = 24)): 0 n (%)
Hypocalcaemia (drug related AE, all grades) (Arm A QD Total (N = 24)): 1 (4) n (%)
Hypokalaemia (drug related AE, Grade 3 and 4) (Arm A QD Total (N = 24)): 4 (17) n (%)
Hypokalaemia (drug related AE, all grades) (Arm A QD Total (N = 24)): 7 (29) n (%)
Hyponatraemia (drug related AE, Grade 3 and 4) (Arm A QD Total (N = 24)): 1 (4) n (%)
Hyponatraemia (drug related AE, all grades) (Arm A QD Total (N = 24)): 1 (4) n (%)
Hypophosphataemia (drug related AE, Grade 3 and 4) (Arm A QD Total (N = 24)): 8 (33) n (%)
Hypophosphataemia (drug related AE, all grades) (Arm A QD Total (N = 24)): 16 (67) n (%)
Ileus (drug related AE, Grade 3 and 4) (Arm A QD Total (N = 24)): 1 (4) n (%)
Increased upper airway secretion (drug related AE, all grades) (Arm A QD Total (N = 24)): 0 n (%)
Laryngeal pain (drug related AE, all grades) (Arm A QD Total (N = 24)): 2 (8) n (%)
Leucocytosis (drug related AE, Grade 3 and 4) (Arm A QD Total (N = 24)): 0 n (%)
Mouth ulceration (drug related AE, all grades) (Arm A QD Total (N = 24)): 2 (8) n (%)
Nausea (drug related AE, Grade 3 and 4) (Arm A QD Total (N = 24)): 3 (13) n (%)
Nausea (drug related AE, all grades) (Arm A QD Total (N = 24)): 15 (63) n (%)
Pruritus (drug related AE, Grade 3 and 4) (Arm A QD Total (N = 24)): 1 (4) n (%)
Pruritus (drug related AE, all grades) (Arm A QD Total (N = 24)): 6 (25) n (%)
Pulmonary embolism (drug related AE, Grade 3 and 4) (Arm A QD Total (N = 24)): 1 (4) n (%)
Rash (drug related AE, all grades) (Arm A QD Total (N = 24)): 8 (33) n (%)
Rash maculopapular (drug related AE, all grades) (Arm A QD Total (N = 24)): 2 (8) n (%)
Sinusitis (drug related AE, all grades) (Arm A QD Total (N = 24)): 2 (8) n (%)
Urticaria (drug related AE, Grade 3 and 4) (Arm A QD Total (N = 24)): 1 (4) n (%)
Vision blurred (drug related AE, all grades) (Arm A QD Total (N = 24)): 1 (4) n (%)
Vomiting (drug related AE, Grade 3 and 4) (Arm A QD Total (N = 24)): 1 (4) n (%)
Vomiting (drug related AE, all grades) (Arm A QD Total (N = 24)): 12 (50) n (%)
Weight decreased (drug related AE, all grades) (Arm A QD Total (N = 24)): 2 (8) n (%)
Patients with dose limiting toxicities (Arm A QD, all dose levels): Four
Treatment-related SAEs, description (Arm A QD, one line per subject): Gr 3 nausea with Gr 3 fatigue and Gr 4 hypophosphataemia; also recorded: Gr 3 ileus
Maximum Tolerated Dose (MTD) (Arm A, once daily (QD) oral dosing): 1.5 mg
Subjects with treatment-related SAEs (Arm B BIW): 2 subjects
Abdominal distension (drug related AE, all grades) (Arm B BIW 2 mg (N = 2)): 0 n (%)
Abdominal pain (drug related AE, Grade 3 and 4) (Arm B BIW 2 mg (N = 2)): 0 n (%)
